Holding throughout (type): cell-based
One assay has as its target T1, human TLR7 (Homo sapiens, UniProt Q9NYK1).
T1 construct: host or cells: HEK-Blue cells
T1 sequence (Q9NYK1 27-1049): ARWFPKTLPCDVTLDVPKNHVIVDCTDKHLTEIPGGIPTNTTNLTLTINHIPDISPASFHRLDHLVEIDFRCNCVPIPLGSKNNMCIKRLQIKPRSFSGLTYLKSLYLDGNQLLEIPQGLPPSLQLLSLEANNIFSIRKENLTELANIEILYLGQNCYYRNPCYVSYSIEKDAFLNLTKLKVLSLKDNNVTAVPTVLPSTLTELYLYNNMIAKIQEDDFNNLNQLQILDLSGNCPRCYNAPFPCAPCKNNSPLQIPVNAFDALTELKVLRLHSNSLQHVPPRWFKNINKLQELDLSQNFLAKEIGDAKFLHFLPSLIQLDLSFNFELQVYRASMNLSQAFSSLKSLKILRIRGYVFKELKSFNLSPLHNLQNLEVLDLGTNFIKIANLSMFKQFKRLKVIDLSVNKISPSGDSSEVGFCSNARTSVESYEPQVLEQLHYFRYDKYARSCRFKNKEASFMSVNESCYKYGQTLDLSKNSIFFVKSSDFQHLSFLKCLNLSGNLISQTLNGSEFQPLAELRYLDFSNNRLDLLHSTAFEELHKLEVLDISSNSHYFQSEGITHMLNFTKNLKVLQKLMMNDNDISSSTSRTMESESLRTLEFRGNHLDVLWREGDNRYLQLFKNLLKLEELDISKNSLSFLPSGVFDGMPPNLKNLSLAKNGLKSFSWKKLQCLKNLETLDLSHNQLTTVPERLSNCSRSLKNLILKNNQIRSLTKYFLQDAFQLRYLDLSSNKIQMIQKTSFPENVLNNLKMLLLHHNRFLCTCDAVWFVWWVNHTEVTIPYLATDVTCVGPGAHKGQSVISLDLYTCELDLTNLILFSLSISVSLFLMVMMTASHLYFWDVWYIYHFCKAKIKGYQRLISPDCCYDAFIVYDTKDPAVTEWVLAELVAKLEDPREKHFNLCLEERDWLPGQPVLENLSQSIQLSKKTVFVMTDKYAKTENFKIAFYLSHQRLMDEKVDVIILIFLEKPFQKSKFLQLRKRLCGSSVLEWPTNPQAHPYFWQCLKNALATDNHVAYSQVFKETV
The assay is described as follows: TLR7 inhibition reporter assay (HEK-Blue cells, SEAP reporter, gardiquimod stimulation). The conditions noted are these: HEK-Blue cells overexpressing human TLR7, SEAP reporter, gardiquimod 7.5 μM; read-out: TLR7 IC50. An outline of the steps:
(§1)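 Human TLR7/8/9 HEK-Blue reporter lines; dose range 0.05 nM–50 μM; 30 min RT preincubation; stimulus gardiquimod 7.5 μM / R848 15.9 μM / ODN2006 5 nM respectively; 22 h, 37 °C; SEAP detected colorimetrically.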

The target of a further assay is T2, human TLR8 (Homo sapiens, UniProt Q9NR97).
T2 construct: host or cells: HEK-Blue cells
T2 sequence (Q9NR97 27-1041): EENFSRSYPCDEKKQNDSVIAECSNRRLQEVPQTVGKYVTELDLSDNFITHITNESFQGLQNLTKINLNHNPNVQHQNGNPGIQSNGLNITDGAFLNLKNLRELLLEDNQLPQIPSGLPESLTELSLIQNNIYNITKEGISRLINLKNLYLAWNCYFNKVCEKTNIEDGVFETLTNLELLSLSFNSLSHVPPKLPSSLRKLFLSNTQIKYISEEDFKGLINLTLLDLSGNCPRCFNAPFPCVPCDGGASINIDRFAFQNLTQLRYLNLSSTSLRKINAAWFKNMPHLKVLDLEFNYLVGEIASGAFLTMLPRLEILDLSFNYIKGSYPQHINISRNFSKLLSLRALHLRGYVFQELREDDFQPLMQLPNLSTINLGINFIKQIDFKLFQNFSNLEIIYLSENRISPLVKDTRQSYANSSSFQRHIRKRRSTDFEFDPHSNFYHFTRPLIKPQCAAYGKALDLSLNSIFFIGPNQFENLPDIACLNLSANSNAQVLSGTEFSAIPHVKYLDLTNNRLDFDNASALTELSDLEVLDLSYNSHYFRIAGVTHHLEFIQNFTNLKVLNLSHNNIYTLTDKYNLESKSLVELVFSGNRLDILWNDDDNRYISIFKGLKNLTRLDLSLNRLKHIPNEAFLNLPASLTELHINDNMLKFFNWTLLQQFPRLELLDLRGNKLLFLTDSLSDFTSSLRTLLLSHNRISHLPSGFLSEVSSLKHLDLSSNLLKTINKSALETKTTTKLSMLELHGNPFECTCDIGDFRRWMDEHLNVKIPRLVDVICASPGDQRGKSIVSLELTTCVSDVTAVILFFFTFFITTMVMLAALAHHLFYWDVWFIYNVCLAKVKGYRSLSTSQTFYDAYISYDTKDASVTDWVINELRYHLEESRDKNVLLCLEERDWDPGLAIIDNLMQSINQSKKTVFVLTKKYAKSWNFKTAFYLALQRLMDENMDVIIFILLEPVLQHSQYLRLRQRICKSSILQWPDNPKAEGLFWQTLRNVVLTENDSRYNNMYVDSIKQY
The assay is described as follows: TLR8 inhibition reporter assay (HEK-Blue cells, SEAP reporter, R848 stimulation). The conditions noted are these: HEK-Blue cells overexpressing human TLR8, SEAP reporter, R848 15.9 μM; read-out: TLR8 IC50. An outline of the steps: as §1

A further assay concerns the target T3, human TLR9 (Homo sapiens, UniProt Q9NR96).
T3 construct: host or cells: HEK-Blue cells
T3 sequence (Q9NR96 26-1032): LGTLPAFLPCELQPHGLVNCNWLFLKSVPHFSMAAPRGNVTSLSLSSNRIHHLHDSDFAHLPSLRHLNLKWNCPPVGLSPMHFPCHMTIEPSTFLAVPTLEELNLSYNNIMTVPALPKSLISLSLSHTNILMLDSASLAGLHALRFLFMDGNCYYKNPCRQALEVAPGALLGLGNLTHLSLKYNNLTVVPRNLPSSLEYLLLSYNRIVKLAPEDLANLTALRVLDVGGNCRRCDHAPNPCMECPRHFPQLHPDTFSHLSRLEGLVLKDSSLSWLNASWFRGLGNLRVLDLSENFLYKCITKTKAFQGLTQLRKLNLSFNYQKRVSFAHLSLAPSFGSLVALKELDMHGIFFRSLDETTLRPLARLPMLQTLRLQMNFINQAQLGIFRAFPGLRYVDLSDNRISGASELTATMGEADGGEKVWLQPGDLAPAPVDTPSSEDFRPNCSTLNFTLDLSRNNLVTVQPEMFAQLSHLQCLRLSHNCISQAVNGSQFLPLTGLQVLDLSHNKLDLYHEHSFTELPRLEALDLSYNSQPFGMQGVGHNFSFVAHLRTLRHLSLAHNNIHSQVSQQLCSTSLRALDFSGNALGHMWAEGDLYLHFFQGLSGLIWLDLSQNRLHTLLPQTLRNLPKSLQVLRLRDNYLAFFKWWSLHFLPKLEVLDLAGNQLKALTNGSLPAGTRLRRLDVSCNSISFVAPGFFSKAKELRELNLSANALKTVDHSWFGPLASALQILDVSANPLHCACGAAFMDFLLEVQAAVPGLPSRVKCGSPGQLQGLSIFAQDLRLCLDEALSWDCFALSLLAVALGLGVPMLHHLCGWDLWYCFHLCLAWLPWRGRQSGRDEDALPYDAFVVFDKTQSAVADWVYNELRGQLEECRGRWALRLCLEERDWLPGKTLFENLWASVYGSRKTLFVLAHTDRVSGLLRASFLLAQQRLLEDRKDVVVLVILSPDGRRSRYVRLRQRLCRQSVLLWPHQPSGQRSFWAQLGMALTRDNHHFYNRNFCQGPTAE
The assay is described as follows: TLR9 inhibition reporter assay (HEK-Blue cells, SEAP reporter, ODN2006 stimulation). The conditions noted are these: HEK-Blue cells overexpressing human TLR9, SEAP reporter, ODN2006 5 nM. An outline of the steps: as §1

The structures appear in SMILES notation.

For `COc1cc(-c2[nH]c3sc(C4CCC(N5CCC6(CCNC6)C5)CC4)nc3c2C(C)C)cn2ncnc12` (single isomer, unassigned) [Example 114, 2-(4-(2,7-diazaspiro[4.4]nonan-2-yl)cyclohexyl)-6-isopropyl-5-(8-methoxy-[1,2,4]triazolo[1,5-a]pyridin-6-yl)-4H-pyrrolo[3,2-d]thiazole], the IC50 at human TLR7 is 0.00363 µM; at human TLR8, 0.0014 µM; against human TLR9, 1.46 µM.

Regarding `COc1cc(-c2[nH]c3sc(C4CCC(N5CCC6(CCNC6)C5)CC4)nc3c2C(C)C)cn2ncnc12` (single isomer, unassigned) [Example 115, 2-(4-(2,7-diazaspiro[4.4]nonan-2-yl)cyclohexyl)-6-isopropyl-5-(8-methoxy-[1,2,4]triazolo[1,5-a]pyridin-6-yl)-4H-pyrrolo[3,2-d]thiazole], the IC50 is 0.0117 µM on human TLR7, 0.017 µM at human TLR8 and 1.21 µM against human TLR9.

`COc1cc(-c2[nH]c3sc(C4CCC(NC5CC6(CNC6)C5)CC4)nc3c2C(C)C)cn2ncnc12` (single isomer, unassigned) [Example 116, N-(4-(6-isopropyl-5-(8-methoxy-[1,2,4]triazolo[1,5-a]pyridin-6-yl)-4H-pyrrolo[3,2-d]thiazol-2-yl)cyclohexyl)-2-azaspiro[3.3]heptan-6-amine]: the IC50 was 0.00311 µM on human TLR7, 0.00191 µM on human TLR8 and 3.88 µM against human TLR9.

Turning to `COc1cc(-c2[nH]c3sc(C4CCC(NC5CC6(CNC6)C5)CC4)nc3c2C(C)C)cn2ncnc12` (single isomer, unassigned) [Example 117, N-(4-(6-isopropyl-5-(8-methoxy-[1,2,4]triazolo[1,5-a]pyridin-6-yl)-4H-pyrrolo[3,2-d]thiazol-2-yl)cyclohexyl)-2-azaspiro[3.3]heptan-6-amine], the IC50 came out at 0.00572 µM on human TLR7, 0.0229 µM on human TLR8 and 7.51 µM against human TLR9.

`COc1cc(-c2[nH]c3sc(C4CCC(N5CC(O)(C(F)(F)F)C5)CC4)nc3c2C(C)C)cn2ncnc12` (single isomer, unassigned) [Example 118, 1-(4-(6-isopropyl-5-(8-methoxy-[1,2,4]triazolo[1,5-a]pyridin-6-yl)-4H-pyrrolo[3,2-d]thiazol-2-yl)cyclohexyl)-3-(trifluoromethyl)azetidin-3-ol]: the IC50 at human TLR7 is 0.002 µM; on human TLR8 it was 0.00126 µM; against human TLR9, 3.3 µM.

On to `COc1cc(-c2[nH]c3sc(C4CCC(N5CC(O)(C(F)(F)F)C5)CC4)nc3c2C(C)C)cn2ncnc12` (single isomer, unassigned) [Example 119, 1-(4-(6-isopropyl-5-(8-methoxy-[1,2,4]triazolo[1,5-a]pyridin-6-yl)-4H-pyrrolo[3,2-d]thiazol-2-yl)cyclohexyl)-3-(trifluoromethyl)azetidin-3-ol], for which the IC50 at human TLR7 was 0.00333 µM; at human TLR8 it was 0.0542 µM; at human TLR9 it was over 50 µM.

Consider `COc1cc(-c2[nH]c3sc(C4CCC(N5CCNC(=O)C5)CC4)nc3c2C(C)C)cn2ncnc12` (single isomer, unassigned) [Example 120, 4-(4-(6-isopropyl-5-(8-methoxy-[1,2,4]triazolo[1,5-a]pyridin-6-yl)-4H-pyrrolo[3,2-d]thiazol-2-yl)cyclohexyl) piperazin-2-one], for which the values for the IC50 at human TLR7, on human TLR8 and against human TLR9 were 0.00419 µM, 0.0167 µM and over 50 µM, respectively.

Consider `COc1cc(-c2[nH]c3sc(C4CCC(N5CCNC(=O)C5)CC4)nc3c2C(C)C)cn2ncnc12` (single isomer, unassigned) [Example 121, 4-(4-(6-isopropyl-5-(8-methoxy-[1,2,4]triazolo[1,5-a]pyridin-6-yl)-4H-pyrrolo[3,2-d]thiazol-2-yl)cyclohexyl) piperazin-2-one], for which the IC50 is 0.00851 µM at human TLR7, 0.0573 µM at human TLR8 and over 50 µM at human TLR9.

As to `COc1cc(-c2[nH]c3sc(C4CCC(N5CC(OC)C5)CC4)nc3c2C(C)C)cn2ncnc12` (single isomer, unassigned) [Example 122, 6-isopropyl-5-(8-methoxy-[1,2,4]triazolo[1,5-a]pyridin-6-yl)-2-(4-(3-methoxyazetidin-1-yl)cyclohexyl)-4H-pyrrolo[3,2-d]thiazole], the IC50 at human TLR7 was 0.00195 µM; at human TLR8 it was 0.00334 µM; against human TLR9, 9.25 µM.

As to `COc1cc(-c2[nH]c3sc(C4CCC(N5CC(OC)C5)CC4)nc3c2C(C)C)cn2ncnc12` (single isomer, unassigned) [Example 123, 6-isopropyl-5-(8-methoxy-[1,2,4]triazolo[1,5-a]pyridin-6-yl)-2-(4-(3-methoxyazetidin-1-yl)cyclohexyl)-4H-pyrrolo[3,2-d]thiazole], the IC50 at human TLR7 was found to be 0.00509 µM; on human TLR8, 0.0168 µM; at human TLR9, 6.29 µM.

The values above are taken from patent US20230139171A1 (SITA Information Networking Computing UK Limited, priority 2019, published 2023).
